Structures are written as SMILES.

One test concerns the target full-length human RORγt (Homo sapiens (Human), UniProt P51449). In words: RORγt (full-length human) reporter assay, Conditions A. Type of test: cell-based. The note with it: Conditions A; for IC50: read-out: RORγt (FL) Reporter Assay A, IC50; for inhibition at 6 µM: read-out: RORγt (FL) Reporter Assay A, % inhibition @ 6 μM; for RORγt (FL) Reporter Assay A, % inhibition (value marked **): marked **: footnote not shown. An excerpt: RORγt (Full-Length Human) Reporter Assay:
Cells used in this assay were transiently co-transfected with three different plasmids, one expressing the GAL4-DNA binding domain (DBD)-RORγt fusion protein under control of a CMV promoter (NH2-Gal4-DBD:RORC-COOH in pCMV-BD, Stratagene #211342), and two reporter plasmids—the firefly luciferase reporter under control of a GAL4 promoter (pFR-Luc 2×GAL4) and Renilla luciferase reporter under control of CMV promoter (pRL-CMV, Promega # E2261). The full-length coding sequence was used for human RORγt, i.e., nucleotides 142-1635 of human RORγt, transcript variant 2, NCBI Accession: NM_001001523.1 (SEQ ID NO:1). HEK293T cells were plated at 35000 per well in 96-well plate in medium of MEM with 8.6% FBS. After 18-22 hours incubation, the transfection was carried out by using a PEI solution with 170.5 ng total DNA/well (50 ng pCMV-BD-ROR plus 20 ng of pFR-Luc reporter and 0.5 ng of pRL-CMV reporter plus 100 ng Carrier DNA (Clontech #630440) for each well). 4-6 hours after transfection, cells were treated with compounds for overnight in the medium with final concentration of FBS 1.1% and DMSO 0.1%. After overnight (16 to 20 hours) incubation, media were removed and cells were lysed with 20 μL 1× Passive Lysis Buffer (Promega) for 10-15 minutes. Luminescence was measured using a BMG LUMIstar OPTIMA plate reader, after addition of 75 μL/well firefly luciferase buffer, followed by 75 μL/well Renilla luciferase buffer. To calculate the effect of compounds on RORγt activity, firefly values were normalized against values of DMSO only and values of reference compound at saturating concentration, then further normalized against Renilla signals. IC50s were generated by plotting final Renilla normalized data against compound concentration and percent inhibition was calculated against DMSO control.
A general note: Reporter assays use an easily measured gene product as a stand-in for the process of interest.

The target in test [1] is human RORγt ligand binding domain (RORγt LBD) (Homo sapiens (Human), UniProt P51449). In words: RORγt ThermoFluor® assay (thermal shift binding). The note with it: read-out: ThermoFluor® Assay, Kd. In outline:
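Binding was inferred from thermal stabilisation (ΔTm) of the E. coli-expressed RORγt LBD (0.065 mg/mL), monitored by 1,8-ANS (60 μM) emission at 500 nm during a 1 °C/min ramp. Buffer was Hepes 100 mM pH 7.0 with NaCl, GSH and Tween-20.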
A general note: In DSF a fluorescence change marks the thermal transition of the protein.

full-length human RORγt, sequence (P51449 other isoform, or with tags, fused parts or gaps): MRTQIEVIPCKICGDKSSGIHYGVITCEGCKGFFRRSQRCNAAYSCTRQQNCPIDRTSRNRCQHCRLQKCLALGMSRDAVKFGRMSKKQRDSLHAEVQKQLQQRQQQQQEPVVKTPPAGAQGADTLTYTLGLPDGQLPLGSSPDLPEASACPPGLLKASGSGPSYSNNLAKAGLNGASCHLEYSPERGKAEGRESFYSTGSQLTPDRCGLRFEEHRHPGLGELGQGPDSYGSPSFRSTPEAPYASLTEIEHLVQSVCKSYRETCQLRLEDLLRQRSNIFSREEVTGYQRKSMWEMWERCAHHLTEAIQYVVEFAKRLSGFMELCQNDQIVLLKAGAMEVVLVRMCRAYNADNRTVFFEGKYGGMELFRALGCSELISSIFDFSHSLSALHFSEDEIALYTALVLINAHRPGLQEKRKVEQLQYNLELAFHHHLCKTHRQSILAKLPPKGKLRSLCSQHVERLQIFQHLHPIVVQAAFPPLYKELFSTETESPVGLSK
human RORγt ligand binding domain (RORγt LBD), sequence (P51449 other isoform, or with tags, fused parts or gaps): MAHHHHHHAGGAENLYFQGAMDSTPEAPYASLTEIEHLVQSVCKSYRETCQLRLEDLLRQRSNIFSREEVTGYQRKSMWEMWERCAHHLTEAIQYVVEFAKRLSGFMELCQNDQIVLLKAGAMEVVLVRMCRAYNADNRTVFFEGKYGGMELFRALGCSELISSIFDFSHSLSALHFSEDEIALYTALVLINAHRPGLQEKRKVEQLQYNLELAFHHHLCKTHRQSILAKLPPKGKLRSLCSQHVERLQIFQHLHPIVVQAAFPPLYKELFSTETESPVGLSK

On to `CC(C)(O)CNC(=O)c1nc(C(=O)N2CCC(F)CC2)c(-c2cnc(NC3CC4(CCC4)C3)cc2C(F)(F)F)s1` [Example 24, 4-(4-Fluoropiperidine-1-carbonyl)-N-(2-hydroxy-2-methylpropyl)-5-(6-(spiro[3.3]heptan-2-ylamino)-4-(trifluoromethyl)pyridin-3-yl)thiazole-2-carboxamide], for which, at full-length human RORγt, the IC50 (commonly the concentration that inhibits the measured activity by half) amounted to 97 nM and the inhibition (commonly the relative decrease from the control value, in per cent) at 6 µM turned out to be 107%. In addition, in test [1], the Kd – broadly, the constant that tells how readily two partners part at equilibrium – was determined as 20 nM.

Turning to `CC(C)(O)CNC(=O)c1nc(C(=O)N2CCC(F)CC2)c(-c2cnc(NC3CCCC(F)(F)C3)cc2C(F)(F)F)s1` (stereo not shown) [Example 23, 5-(6-((3,3-Difluorocyclohexyl)amino)-4-(trifluoromethyl)pyridin-3-yl)-4-(4-fluoropiperidine-1-carbonyl)-N-(2-hydroxy-2-methylpropyl)thiazole-2-carboxamide], at full-length human RORγt, the IC50 turned out to be 79 nM and the inhibition at 6 µM amounted to 96%. For the same compound, the Kd in test [1] was determined as 30 nM.

For `CCOc1cc(NC2CCCCC2)ncc1-c1sc(C(=O)NCC(C)(C)O)nc1C(=O)N1CCC(F)CC1` [Example 69, 5-(6-(Cyclohexylamino)-4-ethoxypyridin-3-yl)-4-(4-fluoropiperidine-1-carbonyl)-N-(2-hydroxy-2-methylpropyl)thiazole-2-carboxamide], on full-length human RORγt, the IC50 was 630 nM and the inhibition at 6 µM turned out to be 85%. Further, the dissociation constant (Kd) in test [1] turned out to be 170 nM.

For `CC(C)(O)CNC(=O)c1nc(C(=O)N2CCC(F)CC2)c(-c2cnc(NC3CCCCC3)c(C(F)F)c2)s1` [Example 6, 5-(6-(Cyclohexylamino)-5-(difluoromethyl)pyridin-3-yl)-4-(4-fluoropiperidine-1-carbonyl)-N-(2-hydroxy-2-methylpropyl)thiazole-2-carboxamide], on full-length human RORγt, the IC50 was 160 nM and the inhibition at 6 µM was 110%. Moreover, the Kd in test [1] was roughly 10 nM.

Regarding `CCc1cc(NC2CCCCC2)ncc1-c1sc(C(=O)NCC(C)(C)O)nc1C(=O)N1CCC(F)CC1` [Example 70, 5-(6-(cyclohexylamino)-4-ethylpyridin-3-yl)-4-(4-fluoropiperidine-1-carbonyl)-N-(2-hydroxy-2-methylpropyl)thiazole-2-carboxamide], at full-length human RORγt, the IC50 came out at 130 nM and the inhibition at 6 µM was determined as 108%. In addition, the Kd in test [1] came out at 36 nM.

As to `COc1cc(-c2sc(C(=O)NCC(C)(C)O)nc2C(=O)N2CCC(F)CC2)cnc1NC1CCCCC1` [Example 59, 5-(6-(Cyclohexylamino)-5-methoxypyridin-3-yl)-4-(4-fluoropiperidine-1-carbonyl)-N-(2-hydroxy-2-methylpropyl)thiazole-2-carboxamide], on full-length human RORγt, the IC50 worked out at 700 nM and the inhibition at 6 µM amounted to 88%.

In the case of `C[C@H]1CC(F)(F)CN1C(=O)c1nc(C(=O)NCC(C)(C)O)sc1-c1cnc(NC2CCCCC2)cc1C(F)(F)F` [Example 11, (S)-5-(6-(Cyclohexylamino)-4-(trifluoromethyl)pyridin-3-yl)-4-(4,4-difluoro-2-methylpyrrolidine-1-carbonyl)-N-(2-hydroxy-2-methylpropyl)thiazole-2-carboxamide], at full-length human RORγt, the “RORγt (FL) Reporter Assay A, % inhibition (value marked **)” value (shortened to “RORγt … % inhibition (value marked **)”) is recorded as 107** % and the IC50 amounted to 17 nM. The Kd in test [1] worked out at 2.6 nM.

For the compound `CC(C)(O)CCNC(=O)c1nc(C(=O)N2CCC(F)(F)CC2)c(-c2cnc(NC3CCCCC3)cc2C(F)(F)F)s1` [Example 15, 5-(6-(Cyclohexylamino)-4-(trifluoromethyl)pyridin-3-yl)-4-(4,4-difluoropiperidine-1-carbonyl)-N-(3-hydroxy-3-methylbutyl)thiazole-2-carboxamide], on full-length human RORγt, the “RORγt … % inhibition (value marked **)” value was 105** % and the IC50 was 39 nM. For the same compound, the Kd in test [1] was 7.5 nM.

For `Cc1c(-c2sc(C(=O)NCC(C)(C)O)nc2C(=O)N2CCC(F)CC2)cnc(NC2CCCCC2)c1F` [Example 66, 5-(6-(Cyclohexylamino)-5-fluoro-4-methylpyridin-3-yl)-4-(4-fluoropiperidine-1-carbonyl)-N-(2-hydroxy-2-methylpropyl)thiazole-2-carboxamide], on full-length human RORγt, the IC50 came out at 150 nM and the inhibition at 6 µM was determined as 85%. Moreover, the Kd in test [1] came to 41 nM.

Regarding `CC(C)(O)CNC(=O)c1nc(C(=O)N2CCC(F)CC2)c(-c2cnc(NC3CC(F)(F)C3)c(C(F)(F)F)c2)s1` [Example 16, 5-(6-((3,3-Difluorocyclobutyl)amino)-5-(trifluoromethyl)pyridin-3-yl)-4-(4-fluoropiperidine-1-carbonyl)-N-(2-hydroxy-2-methylpropyl)thiazole-2-carboxamide], on full-length human RORγt, the IC50 worked out at 470 nM and the inhibition at 6 µM turned out to be 105%. In test [1], the Kd came to 130 nM.

Take `CC(C)(O)CNC(=O)c1nc(C(=O)N2CCC(F)CC2)c(-c2cnc(NC3CCCCC3)cc2C#N)s1` [Example 57, 5-(4-Cyano-6-(cyclohexylamino)pyridin-3-yl)-4-(4-fluoropiperidine-1-carbonyl)-N-(2-hydroxy-2-methylpropyl)thiazole-2-carboxamide]: on full-length human RORγt, the IC50 came out at 78 nM and the inhibition at 6 µM came out at 106%. Further, in test [1], the Kd turned out to be 79 nM.

For the compound `CC(C)(O)CNC(=O)c1nc(C(=O)N2CCC(F)CC2)c(-c2cnc(NC3CCCC(F)(F)C3)c(C(F)(F)F)c2)s1` (stereo not shown) [Example 13, 5-(6-((3,3-Difluorocyclohexyl)amino)-5-(trifluoromethyl)pyridin-3-yl)-4-(4-fluoropiperidine-1-carbonyl)-N-(2-hydroxy-2-methylpropyl)thiazole-2-carboxamide], on full-length human RORγt, the “RORγt … % inhibition (value marked **)” value is on record as 99** % and the IC50 came to 100 nM. Further, in test [1], the Kd is 37 nM.

In the case of `C[C@H]1CCCCN1C(=O)c1nc(C(=O)NC2CCS(=O)(=O)CC2)sc1-c1cnc(NC2CCCCC2)cc1C(F)(F)F` [Example 17, (S)-5-(6-(Cyclohexylamino)-4-(trifluoromethyl)pyridin-3-yl)-N-(1,1-dioxidotetrahydro-2H-thiopyran-4-yl)-4-(2-methylpiperidine-1-carbonyl)thiazole-2-carboxamide], on full-length human RORγt, the “RORγt … % inhibition (value marked **)” value is on record as 95** % and the IC50 came to 9 nM. Besides, the Kd in test [1] is 0.15 nM.

Regarding `CC(C)(O)CNC(=O)c1nc(C(=O)N2CCC(F)CC2)c(-c2cnc(NC3CCCCC3)c(C#N)c2)s1` [Example 58, 5-(5-Cyano-6-(cyclohexylamino)pyridin-3-yl)-4-(4-fluoropiperidine-1-carbonyl)-N-(2-hydroxy-2-methylpropyl)thiazole-2-carboxamide], on full-length human RORγt, the IC50 came to 770 nM and the inhibition at 6 µM is 93%. Further, in test [1], the Kd was determined as 170 nM.

As to `Cc1c(-c2sc(C(=O)NCC(C)(C)O)nc2C(=O)N2CCC(F)CC2)cnc(NC2CCCCC2)c1C#N` [Example 60, 5-(5-Cyano-6-(cyclohexylamino)-4-methylpyridin-3-yl)-4-(4-fluoropiperidine-1-carbonyl)-N-(2-hydroxy-2-methylpropyl)thiazole-2-carboxamide], at full-length human RORγt, the IC50 stood at 430 nM and the inhibition at 6 µM was 90.3%. For the same compound, the Kd in test [1] is 160 nM.

With `COc1cc(NC2CCCCC2)ncc1-c1sc(C(=O)NCC(C)(C)O)nc1C(=O)N1CCC(F)CC1` [Example 63, 5-(6-(Cyclohexylamino)-4-methoxypyridin-3-yl)-4-(4-fluoropiperidine-1-carbonyl)-N-(2-hydroxy-2-methylpropyl)thiazole-2-carboxamide], at full-length human RORγt, the IC50 amounted to 250 nM and the inhibition at 6 µM came out at 96%.

Take `CC(C)(O)CNC(=O)c1nc(C(=O)N2CCC(F)CC2)c(-c2cnc(NC3CC(F)(F)C3)cc2C(F)(F)F)s1` [Example 21, 5-(6-((3,3-Difluorocyclobutyl)amino)-4-(trifluoromethyl)pyridin-3-yl)-4-(4-fluoropiperidine-1-carbonyl)-N-(2-hydroxy-2-methylpropyl)thiazole-2-carboxamide]: the inhibition at 6 µM at full-length human RORγt was found to be 100%.

As for `CC(C)c1cc(NC2CCCCC2)ncc1-c1sc(C(=O)NCC(C)(C)O)nc1C(=O)N1CCC(F)CC1` [Example 65, 5-(6-(Cyclohexylamino)-4-isopropylpyridin-3-yl)-4-(4-fluoropiperidine-1-carbonyl)-N-(2-hydroxy-2-methylpropyl)thiazole-2-carboxamide], on full-length human RORγt, the IC50 came to 210 nM and the inhibition at 6 µM turned out to be 103%.

(Values after patent US10975068B2, “6-aminopyridin-3-yl thiazoles as modulators of RORγT” (Janssen Pharmaceutica NV, priority 2016, dated 2021).)
